Drawing on ChEMBL document CHEMBL1154660, “Synthesis of pyrrolo[2,3-d]pyrimidine derivatives and their antiproliferative activity against melanoma cell line” (Bioorg Med Chem Lett, 2009), this text covers IC50 for 20 compounds.

One experiment concerns HS27. The experiment can be described thus: Antiproliferative activity against human HS27 cells after 24 hrs by MTT assay. In kind it is cell-based. Conditions: HS27, 24 h. A general note: Tetrazolium dyes change colour on reduction, which living cells bring about.
The nature of experiment [1]: Antiproliferative activity against human A375P cells after 24 hrs by MTT assay. In kind it is functional, cell-based.

Structures are written as SMILES. pIC50: −log10 of the molar value. Bounds are passed on as bounds.

The pIC50 is the IC50 on a negative log10 scale, so that one unit is a factor of ten. A higher pIC50 goes with a low IC50. Take `Nc1ncnc2c1ccn2-c1ccc(NC(=O)Nc2ccc(Cl)c(Cl)c2)cc1`: the pIC50 in the experiment on HS27 is 5.54; in experiment [1], 5.27. Take `CC(=O)Nc1ncnc2c1ccn2-c1ccc(NC(=O)c2ccc(Cl)c(C(F)(F)F)c2)cc1`: the pIC50 (in the experiment on HS27; in experiment [1]) was below 5.00 in each case.

Take `Nc1ncnc2c1ccn2-c1ccc(NC(=O)c2ccc(Cl)c(C(F)(F)F)c2)cc1`: the figures for the negative-log IC50 (pIC50) (with HS27; in experiment [1]) were 5.25 and 5.54, respectively. Take `Nc1ncnc2c1ccn2-c1ccc(NC(=O)Nc2ccc(Cl)c(C(F)(F)F)c2)cc1`: the negative-log IC50 (pIC50) in the experiment on HS27 was below 5.00; in experiment [1] it was 5.09. For `Nc1ncnc2c1ccn2-c1ccc(NC(=O)Nc2cc(C(F)(F)F)cc(C(F)(F)F)c2)cc1` the same measures were 5.02 and 5.52. Taken in the same sequence, the figures for `O=C(Nc1ccc(-n2ccc3c(NC(=O)c4ccccc4)ncnc32)cc1)c1ccc(Cl)c(Cl)c1` were 5.30 and 5.70. Regarding `Nc1ncnc2c1ccn2-c1ccc(NC(=O)c2cccc(C(F)(F)F)c2)cc1`, the values for the pIC50 (with HS27; in experiment [1]) were 5.15 and 5.01, respectively. Taken in the same sequence, the figures for `O=C(Nc1ccc(-n2ccc3c(NC(=O)c4ccccc4)ncnc32)cc1)Nc1ccc(Cl)c(C(F)(F)F)c1` were 5.22 and 5.34.

In the case of `CC(=O)Nc1ncnc2c1ccn2-c1ccc(NC(=O)Nc2ccc(Cl)c(C(F)(F)F)c2)cc1`, the pIC50 (in the experiment with HS27; in experiment [1]) was below 5.00 throughout.

With `O=C(Nc1ccc(-n2ccc3c(NC(=O)c4ccccc4)ncnc32)cc1)Nc1cccc(Cl)c1Cl`, the values for the negative logarithm of the IC50 (pIC50) (with HS27; in experiment [1]) were 5.11 and 5.39, respectively. As for `Cc1cn(-c2cc(C(=O)Nc3ccc(-n4ccc5c(NC(=O)c6ccccc6)ncnc54)cc3)cc(C(F)(F)F)c2)cn1`, the pIC50 in the experiment with HS27 is 5.55; in experiment [1], 6.10. For `O=C(Nc1ccc(-n2ccc3c(NC(=O)c4ccccc4)ncnc32)cc1)c1ccc(N2CCOCC2)c(C(F)(F)F)c1` the same measures were 5.80 and 6.05. Taken in the same sequence, the figures for `O=C(Nc1ccc(-n2ccc3c(NC(=O)c4ccccc4)ncnc32)cc1)c1cc(C(F)(F)F)cc(C(F)(F)F)c1` were 5.18 and 5.70. As to `O=C(Nc1ccc(-n2ccc3c(NC(=O)c4ccccc4)ncnc32)cc1)Nc1cc(C(F)(F)F)cc(C(F)(F)F)c1`, the pIC50 in the experiment on HS27 was below 5.00; in experiment [1] it was 5.01. Taken in the same sequence, the figures for `O=C(Nc1ccc(-n2ccc3c(NC(=O)c4ccccc4)ncnc32)cc1)Nc1ccc(Cl)c(Cl)c1` were 5.35 and 5.40. Consider `CC(=O)Nc1ncnc2c1ccn2-c1ccc(NC(=O)Nc2cccc(Cl)c2Cl)cc1`, for which the pIC50 (with HS27; in experiment [1]) was below 5.00 throughout. On to `O=C(Nc1ccc(-n2ccc3c(NC(=O)c4ccccc4)ncnc32)cc1)Nc1cccc(C(F)(F)F)c1`, for which the negative logarithm of the IC50 (pIC50) in the experiment on HS27 is 5.35; in experiment [1] it was 5.02.

On to `O=C(Nc1ccc(-n2ccc3c(NC(=O)c4ccccc4)ncnc32)cc1)c1cccc(C(F)(F)F)c1`, for which the negative logarithm of the IC50 (pIC50) with HS27 is 5.23; in experiment [1], 5.33. For `O=C(Nc1ccc(-n2ccc3c(NC(=O)c4ccccc4)ncnc32)cc1)c1ccc(Cl)c(C(F)(F)F)c1` the same measures were 5.26 and 5.64. In turn, `CNC(=O)c1cc(Oc2ccc(NC(=O)Nc3ccc(Cl)c(C(F)(F)F)c3)cc2)ccn1` [SORAFENIB] had a pIC50 in experiment [1] of 5.25.
